The results in this text go back to US8466171B2, “Fused heterocyclic compounds useful as modulators of nuclear hormone receptor function” (Bristol-Myers Squibb Company, priority 2007, dated 2013).

Positions count from the first letter of the chain named.

The term IC50 denotes the midpoint of a concentration-inhibition curve. Read a high IC50 as lower potency. What is called Ki is the dissociation constant of the complex between target and ligand, obtained from inhibition or displacement.

One test deals with T1, androgen receptor (AR) (Homo sapiens, UniProt P10275).
T1 sequence (P10275 1-920): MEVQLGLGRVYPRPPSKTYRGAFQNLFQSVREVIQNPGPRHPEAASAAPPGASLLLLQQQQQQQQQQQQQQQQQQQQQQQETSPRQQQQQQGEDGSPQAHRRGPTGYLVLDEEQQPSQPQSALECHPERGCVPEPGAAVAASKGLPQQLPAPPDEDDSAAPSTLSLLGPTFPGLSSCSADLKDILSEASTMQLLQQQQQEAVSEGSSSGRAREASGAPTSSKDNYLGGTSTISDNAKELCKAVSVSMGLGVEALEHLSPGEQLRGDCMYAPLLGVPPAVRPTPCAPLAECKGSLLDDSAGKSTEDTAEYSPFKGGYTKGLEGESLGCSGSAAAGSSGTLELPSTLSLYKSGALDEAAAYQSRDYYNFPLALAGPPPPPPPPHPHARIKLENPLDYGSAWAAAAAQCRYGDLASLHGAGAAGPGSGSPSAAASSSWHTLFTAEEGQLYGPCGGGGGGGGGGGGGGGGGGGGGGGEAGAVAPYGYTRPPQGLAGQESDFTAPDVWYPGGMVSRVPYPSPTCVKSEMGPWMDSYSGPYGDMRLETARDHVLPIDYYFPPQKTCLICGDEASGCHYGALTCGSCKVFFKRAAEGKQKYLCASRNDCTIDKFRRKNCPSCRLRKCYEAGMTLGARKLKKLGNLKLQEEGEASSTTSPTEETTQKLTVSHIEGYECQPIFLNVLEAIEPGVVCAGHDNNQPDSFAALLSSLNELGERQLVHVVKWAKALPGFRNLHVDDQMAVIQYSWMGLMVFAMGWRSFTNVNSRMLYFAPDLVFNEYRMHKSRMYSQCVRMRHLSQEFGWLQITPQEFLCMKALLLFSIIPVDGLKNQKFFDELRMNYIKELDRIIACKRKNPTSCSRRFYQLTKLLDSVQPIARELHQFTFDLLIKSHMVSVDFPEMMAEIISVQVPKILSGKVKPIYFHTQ
The test can be described thus: MDA-MB-453 Androgen Receptor Transactivation Assay. Format: cell-based. The note with it: MDA-MB-453 cells, PSA-Luc reporter, 3 nM DHT, 48 hour incubation. The source says:
Compounds can be tested in a cell based transactivation assay used to measure the antagonism of androgen receptor (AR) transcriptional activity. […] The human breast adenocarcinoma MDA-MB-453 cell line (American Type Culture Collection, Rockville, Md., ATCC#: HTB-131), expressing a functional endogenous wild type AR, was transiently transfected with a reporter plasmid and tested for AR dependent transactivation activity in the absence or presence of test compounds. The pGL3 PSA-Luc reporter plasmid is comprised of the cDNA for the firefly luciferase gene and the upstream promoter sequences containing the androgen response elements (AREs) of the prostate specific antigen (PSA). This plasmid functions as a reporter for the transcription-modulating activity of the AR. In order to detect antagonists, the transactivation assay is conducted in the presence of constant concentration of the natural AR hormone (DHT) to induce a defined reporter signal. Addition of increasing concentrations of the suspected antagonist will decrease the reporter signal (luciferase activity).
MDA-MB-453 and 22 RV1 cells were maintained in DMEM (Cellgro, Cat. #10-014-CM) or RPMI 1640 (Gibco Cat. #11875-085) respectively and supplemented with 10% FBS (Invitrogen/GIBCO Life Science). Cells were bulk transfected in flasks with 1.3 ug/ml pGL3 PSA-Luc plasmid by using the Lipofectamine 2000 Reagent (Invitrogen, Cat. #11668-019) and serum-free Opti-MEM I media (Invitrogen, Cat#31985-070) according to the manufacturer's optimized conditions. Transfection was conducted at 37° C. with 5% CO2 for 16-18 hours. Following transfection, cells are washed, treated with trypsin, counted, and seeded in a 96-well plate at 30,000 cells per well in DMEM containing 10% Charcoal/Dextran Treated Fetal Bovine Serum (Gibco Cat. #11054-020) for MDA-MB-453 cells or RPMI 1640 (Gibco Cat. #110835) containing 10% FBS (Invitrogen/GIBCO Life Science) for 22 RV1 cells.
Following transfection, cells were incubated in the absence (blank) or presence (control) of 3 nM DHT (Sigma, Cat. #A-8380) and in the presence or absence of the standard antiandrogen bicalutamide or test compounds ranging in concentrations from 10^−10 to 10^−5M. Duplicates were used for each sample. The compound dilutions were performed by the Tecan Genesis (Tecan, Triangle Park, N.C.). After a 48 hour incubation, luciferase activity was measured using the Steady-Glo Luciferase Assay System (Promega, Cat. #E2550) according to manufacturer's specifications and luminescence was measured on a Packard TopCount (PerkinElmer). For each luciferase sample reading, the percent control (in absence of compounds) was calculated as: % Control=100×[averagesample−averageblank]/[averagecontrol−averageblank] Data was plotted and the IC50 value was defined as the concentration of compound that inhibited 50% of the luciferase activity for the controls.

The next test addresses T2, wild type AR (Homo sapiens, UniProt P10275).
T2 sequence (P10275 1-920 Q868H): T1 sequence (P10275 1-920) with Q868H
The test can be described thus: AR Binding Assay (whole cell, MDA-MB-453, competition with [3H]-DHT). The note with it: MDA-MB-453 cells, competition with 2 nM [3H]-DHT, Cheng-Prusoff. How it is done: For the whole cell binding assay, human breast adenocarcinoma MDA-MB-453 cells (American Type Culture Collection, Rockville, Md., ATCC #: HTB-131), expressing a functional endogenous wild type AR, are grown to near confluency in T-225 tissue culture flasks containing Dulbecco's Modified Eagle Medium (DMEM) (Mediatech CAT #45000-668) supplemented with 10% fetal bovine serum (FBS) (Invitrogen/GIBCO Life Science). In order to remove any endogenous ligand that might be complexed with the receptor in the cells, the tissue culture media is removed and the cells are incubated overnight at 37° C. in serum-free DMEM. The next day, cells are rinsed with magnesium and calcium free Phosphate Buffered Saline (PBS) (Invitrogen/GIBCO Life Science), harvested using Cell Stripper Buffer (Mediatech) and re-suspended in serum-free DMEM to achieve a final assay concentration of 4×10^5 cells/well of a 96-well assay plate. […] After the remaining media is removed, cells are washed three times with PBS and harvested onto UniFilter GF/B plates (PerkinElmer).
Two replicates are used for each sample. After 90 minutes at room temperature, cells are harvested by filtering through a GF/B filter plate (PerkinElmer) followed by washing with ice-cold 1×PBS (without calcium and magnesium) to remove unbound label. […] After correcting for non-specific binding, IC50 values are determined. The IC50 value is defined as the concentration of competing ligand needed to reduce specific binding by 50%. […] The Ki values are determined by application of the Cheng-Prusoff equation to the IC50 values where: […]
See e.g., D. Rodbard, Mathematics and Statistics of Ligand Assays: An Illustrated Guide: In: J. Langon and J. J. Clapp, eds., Ligand Assay, Masson Publishing U.S.A., Inc., New York, pp. 45-99 (1981).

The compound `N#Cc1ccc(N2C[C@@H]3[C@@H]([C@@H]4C=C[C@H]3O4)S2(=O)=O)cc1C(F)(F)F` (racemic) [Example 1ii] gave an IC50 at androgen receptor (AR) of 108 nM. This compound also had a Ki on wild type AR of 29 nM.
In the same order, the values of `N#Cc1ccc(N2C[C@H]3[C@@H]4O[C@@H](C[C@H]4O)[C@H]3S2(=O)=O)cc1C(F)(F)F` (racemic) [Example 10ii, rac-4-((1R,2R,6R,7R,8S)-8-hydroxy-3,3-dioxido-10-oxa-3-thia-4-azatricyclo[5.2.1.0^2,6]dec-4-yl)-2-(trifluoromethyl)benzonitrile] are 7500 nM and 745 nM.
For the compound `N#Cc1ccc(N2C[C@H]3[C@@H]4O[C@@H](C[C@H]4O)[C@H]3S2(=O)=O)cc1C(F)(F)F` (racemic) [Example 10iii], on androgen receptor (AR), the IC50 was found to be 8320 nM. Affinity on wild type AR was put at a Ki of 568 nM.
In the same order, the values of `C[C@]12CC[C@](C)(O1)[C@@H]1[C@H]2CN(c2ccc(C#N)c(C(F)(F)F)c2)S1(=O)=O` (racemic) [Example 18, rac-4-((1R,2R,6R,7S)-1,7-dimethyl-3,3-dioxido-10-oxa-3-thia-4-azatricyclo[5.2.1.0^2,6]dec-4-yl)-2-(trifluoromethyl)benzonitrile] are 1350 nM and 222 nM.
For `C[C@]12C=C[C@H](O1)[C@@H]1[C@H]2CN(c2ccc(C#N)c(C(F)(F)F)c2)S1(=O)=O` (racemic) [Example 21i, rac-4-((1R,2R,6R,7S)-7-methyl-3,3-dioxido-10-oxa-3-thia-4-azatricyclo[5.2.1.0^2,6]dec-8-en-4-yl)-2-(trifluoromethyl)benzonitrile] the same measures were 1160 nM and 173 nM.
In the same order, the values of `C[C@@]12C=C[C@@H](O1)[C@@H]1CN(c3ccc(C#N)c(C(F)(F)F)c3)S(=O)(=O)[C@@H]12` (racemic) [Example 21ii, rac-4-((1R,2R,6R,7S)-1-methyl-3,3-dioxido-10-oxa-3-thia-4-azatricyclo[5.2.1.0^2,6]dec-8-en-4-yl)-2-(trifluoromethyl)benzonitrile] are 1110 nM and 145 nM.
`COC(=O)N[C@@H]1C[C@@H]2O[C@H]1[C@@H]1CN(c3ccc(C#N)c(C(F)(F)F)c3)S(=O)(=O)[C@@H]12` (racemic) [Example 26i, methyl rac-((1R,2R,6R,7R,8S)-4-(4-cyano-3-(trifluoromethyl)phenyl)-3,3-dioxido-10-oxa-3-thia-4-azatricyclo[5.2.1.0^2,6]dec-8-yl)carbamate] yielded a 50% inhibitory concentration (IC50) at androgen receptor (AR) of 3130 nM. Moreover, the Ki at wild type AR came to 266 nM.
For `N#Cc1ccc(N2C[C@@H]3[C@@H]4O[C@@H](C[C@@H]4O)[C@@H]3S2(=O)=O)cc1C(F)(F)F` (single isomer, unassigned) [Example 37i] the same measures were 154 nM and 10 nM.
For the compound `N#Cc1ccc(N2C[C@@H]3[C@@H]([C@@H]4O[C@H]3C[C@@H]4O)S2(=O)=O)cc1C(F)(F)F` (single isomer, unassigned) [Example 38ii], on androgen receptor (AR), the midpoint of inhibition, the IC50, lay at 141 nM. Besides, on wild type AR, the Ki stood at 10 nM.
With `N#Cc1ccc(N2CC3C([C@@H]4CC[C@H]3O4)S2(=O)=O)cc1C(F)(F)F` (stereo in doubt) [Example 6, 4-((1S,2R,6R,7R)-3,3-dioxido-10-oxa-3-thia-4-azatricyclo[5.2.1.0^2,6]dec-4-yl)-2-(trifluoromethyl)benzonitrile], half-maximal inhibition against androgen receptor (AR) (IC50) was put at 198 nM. This compound also returned a Ki on wild type AR of 23 nM.
In the same order, the values of `C[C@]12[C@H](CN(c3ccc(C#N)c(C(F)(F)F)c3)S1(=O)=O)[C@@H]1C=C[C@H]2O1` [Example 4, 4-((1R,2R,6R,7S)-2-methyl-3,3-dioxido-10-oxa-3-thia-4-azatricyclo[5.2.1.0^2,6]dec-8-en-4-yl)-2-(trifluoromethyl)benzonitrile] are 1420 nM and 221 nM.
